According to US4440784A, “Anti-inflammatory, analgesic, and antipyretic pharmaceutical composition” (Kanegafuchi Chemical Industry Company, Ltd., priority 1981, dated 1984):
Where two headings read alike, the source gives them in different places.

Tests used:
[1] = system: carrageenan-induced paw edema in rats; test: carrageenan-induced paw edema in rats (acute anti-inflammatory activity); type: in vivo, male Wistar strain rats; settings: po; for inhibition in vivo at 50 mg/kg / inhibition in vivo at 100 mg/kg: rat, p.o.; for inhibition in vivo at 5 mg/kg: Rattus norvegicus
Description: (1) An acute anti-inflammatory activity was evaluated by the method of carrageenan-induced paw edema in rats [C. A. Winter et al., Proc. Soc. […] Six male Wistar strain rats weighing 150~180 g were used in each group. […] The volume of each paw edema was measured 3 and 5 hours after the injection of carrageenan. Percent edema inhibition was calculated by the following equation. [formula]

[2] = system: acetic acid-induced writhing in mice; test: acetic acid-induced writhing in mice (analgesic activity); type: in vivo, male ddY strain mice; settings: po
Description: An analgesic activity was evaluated by the method of acetic acid-induced writhing in mice [R. Koster et al., Federation Proc., 18, 412 (1959)]. Ten male ddY strain mice weighing 20~25 g were used in each group. Test compounds suspended in 2.5% acacia were administered p.o. to the mice. One hour later, the mice were injected i.p. with 0.6% acetic acid in a volume of 0.1 ml/10 g body weight. The number of writhes in each of mice was counted for 20 minutes after the injection of the acetic acid. Percent inhibition was calculated by the following equation. [formula]

[3] = system: yeast-induced fever in rats; test: yeast-induced fever in rats (antipyretic activity); type: in vivo, male Wistar strain rats; settings: po; for inhibition in vivo at 100 mg/kg / inhibition in vivo at 50 mg/kg: rat, p.o.; for inhibition in vivo at 5 mg/kg: Rattus norvegicus
Description: Five male Wistar strain rats weighing 150~180 g were used in each group. A 20% Baker's yeast suspension in 0.9% NaCl was injected s.c. into the dorsal region of rats in a volume of 1 ml/100 g body weight. […] The rectal temperature was determined with a thermometer, 1, 3 and 5 hours after the administration of test compounds. Percent inhibition was calculated by the following equation. [formula]

[4] = toxicity test in mice (LD50); settings: in vivo, po; mouse, 14 days observation
Description: Female ICR strain mice weighing 20~25 g in groups of six each were used for toxicity tests. Test compounds suspended in 2.5% acacia were administered p.o. to the mice. The animals were observed daily for 14 days after the administration. The LD50 values were estimated from mortality (No. of dead mice/No. of mice used).

[5] = system: adjuvant-induced arthritis in rats; test: adjuvant-induced arthritis in rats (chronic anti-inflammatory activity); type: in vivo, male Sprague-Dawley strain rats; settings: rat, p.o. once daily
Description: (3) A chronic anti-inflammatory activity was evaluated by the method of adjuvant-induced arthritis in rats [D. T. Walz et al., J. Pharmacol. and Exp. Ther., 178, 223 (1971)]. Eight male Sprague-Dawley strain rats weighing 190~230 g were used in each group. Into the left hind paw of rats was injected i.d. 0.5 mg of Mycobacterium butyricum suspended in 0.05 ml of paraffin oil. Test compounds suspended in 2.5% acacia were administered p.o. once daily for 21 days, starting on the day of the injection of an adjuvant (day 0). Paw volumes of adjuvant-injected and uninjected feet were measured on day 14 and on day 21. Percent inhibition was calculated by the following equation. [formula]

[6] = system: paper disk-induced granuloma in rats; test: paper disk-induced granuloma in rats (sub-chronic anti-inflammatory activity); type: in vivo, male Wistar strain rats; settings: rat, p.o. once daily for 7 days
Description: Six male Wistar strain rats weighing 150~180 g were used in each group. Each paper disk (29±1 mg) was implanted s.c. into the bilateral area of the scapula of rats under anesthesia with amobarbital sodium. […] The rats were killed on day 7, at which time the paper disks with surrounding granulomatous tissues were removed and dried to constant weight overnight, and weighed. Percent inhibition was calculated by the following equation. [formula]

[7] = 3 hours after carrageenan, read-out: Percent edema inhibition, 3 hours
[8] = 5 hours after carrageenan, read-out: Percent edema inhibition, 5 hours
[9] = mouse, p.o., 100 mg/kg, 1 hour before acetic acid i.p., read-out: Inhibition (writhing)
[10] = 1 hour after administration, read-out: Inhibition (fever), 1 hour
[11] = 3 hours after administration, read-out: Inhibition (fever), 3 hours
[12] = 5 hours after administration, read-out: Inhibition (fever), 5 hours
[13] = Mus musculus, read-out: Inhibition (writhing)

SMILES	inhibition in vivo at 50 mg/kg [1, 7]	inhibition in vivo at 50 mg/kg [1, 8]	inhibition in vivo at 100 mg/kg [2, 9]	inhibition in vivo at 100 mg/kg [3, 10]	inhibition in vivo at 100 mg/kg [3, 11]	inhibition in vivo at 100 mg/kg [3, 12]	LD50 at 336 h [4]	further results
CCOC(=O)C(=Cc1cc(C(C)(C)C)c(O)c(C(C)(C)C)c1)C(C)=O [Compound IV, β-Ethoxycarbonyl-β-acetyl-3,5-di-tert-butyl-4-hydroxystyrene]	30.3%	28.4%	56.9%	23%	40.9%	41.6%	> 1000 mg/kg	–
CC(=O)Oc1ccccc1C(=O)O [Aspirin, reference compound]	–	–	–	–	–	–	–	inhibition in vivo at 100 mg/kg [2, 13]: 38%
CC(C)(C)c1cc(C=C(C#N)S(C)(=O)=O)cc(C(C)(C)C)c1O [Compound XI, β-Methylsulfonyl-β-cyano-3,5-di-tert-butyl-4-hydroxystyrene]	35.1%	18.3%	–	–	–	–	250 to 500 mg/kg	inhibition in vivo at 50 mg/kg ([2]; mouse, p.o., 50 mg/kg, 1 hour before acetic acid i.p.): 31.6%; inhibition in vivo at 50 mg/kg [3, 10]: 23.2%; inhibition in vivo at 50 mg/kg [3, 11]: 31.2%; inhibition in vivo at 50 mg/kg [3, 12]: 19.9%
CC(=O)C(C)=Cc1cc(C(C)(C)C)c(O)c(C(C)(C)C)c1 [Compound VI, β-Acetyl-β-methyl-3,5-di-tert-butyl-4-hydroxystyrene]	32.5%	20.7%	47.8%	38.1%	45.5%	41.6%	> 1000 mg/kg	–
CC(C)Cc1ccc(C(C)C(=O)O)cc1 (centres unmarked) [Ibuprofen, reference compound]	–	–	–	–	–	–	–	Inhibition, injected foot, Day 14 ([5]; 12.5 mg/kg/day): -2.6%; Inhibition, injected foot, Day 21 ([5]; 12.5 mg/kg/day): -17.4%; Inhibition, uninjected foot, Day 14 ([5]; 12.5 mg/kg/day): 13.5%; Inhibition, uninjected foot, Day 21 ([5]; 12.5 mg/kg/day): -7.4%; Inhibition, injected foot, Day 14 ([5]; 50 mg/kg/day): -1.7%; Inhibition, injected foot, Day 21 ([5]; 50 mg/kg/day): 28.7%; Inhibition, uninjected foot, Day 14 ([5]; 50 mg/kg/day): 32.4%; Inhibition, uninjected foot, Day 21 ([5]; 50 mg/kg/day): 44.4%
CC(C)(C)c1cc(C=CC(=O)c2ccccc2)cc(C(C)(C)C)c1O [Compound VII, β-Benzoyl-3,5-di-tert-butyl-4-hydroxystyrene]	16.9%	19.7%	33%	15.9%	27.7%	21.4%	> 1000 mg/kg	–
COC(=O)C(=Cc1cc(C(C)(C)C)c(O)c(C(C)(C)C)c1)CCO [Compound II, β-Methoxycarbonyl-β-(2-hydroxyethyl)-3,5-di-tert-butyl-4-hydroxystyrene]	52.1%	41.7%	79.8%	42.5%	64.5%	59.7%	> 1000 mg/kg	–
CCCCC1C(=O)N(c2ccccc2)N(c2ccccc2)C1=O [Phenylbutazone, reference compound]	–	–	–	–	–	–	–	inhibition in vivo at 100 mg/kg [1, 7]: 23.6%; inhibition in vivo at 100 mg/kg [1, 8]: 28.9%; Inhibition (granuloma) ([6]; 25 mg/kg/day): 5.6%; Inhibition (granuloma) ([6]; 100 mg/kg/day): 24.2%
COc1ccc2c(c1)c(CC(=O)O)c(C)n2C(=O)c1ccc(Cl)cc1 [Indomethacin, reference compound]	–	–	–	–	–	–	–	inhibition in vivo at 5 mg/kg ([1]; 3 h, read-out: Percent edema inhibition, 3 hours): 32.8%; inhibition in vivo at 5 mg/kg ([1]; 5 h, read-out: Percent edema inhibition, 5 hours): 39.2%; Inhibition (granuloma) ([6]; 1.25 mg/kg/day): 14.0%; Inhibition (granuloma) ([6]; 5 mg/kg/day): 25.5%; inhibition in vivo at 5 mg/kg [2, 13]: 62.7%; inhibition in vivo at 5 mg/kg ([3]; 1 h, read-out: Inhibition (fever), 1 hour): 35.4%; inhibition in vivo at 5 mg/kg ([3]; 3 h, read-out: Inhibition (fever), 3 hours): 56.4%; inhibition in vivo at 5 mg/kg ([3]; 5 h, read-out: Inhibition (fever), 5 hours): 66.2%
CC(C)(C)c1cc(C=C(CCO)C(=O)O)cc(C(C)(C)C)c1O [Compound I, β-Carboxy-β-(2-hydroxyethyl)-3,5-di-tert-butyl-4-hydroxystyrene]	44.6%	41.6%	74.5%	53.1%	98.9%	70.3%	> 1000 mg/kg	–
CC(=O)C=Cc1cc(C(C)(C)C)c(O)c(C(C)(C)C)c1 [Compound V, β-Acetyl-3,5-di-tert-butyl-4-hydroxystyrene]	43.2%	50%	53.1%	34.5%	70.9%	64.9%	> 1000 mg/kg	Inhibition (granuloma) ([6]; 25 mg/kg/day): 29.4%; Inhibition (granuloma) ([6]; 100 mg/kg/day): 29.0%; Inhibition, injected foot, Day 14 ([5]; 12.5 mg/kg/day): 12.0%; Inhibition, injected foot, Day 21 ([5]; 12.5 mg/kg/day): 29.6%; Inhibition, uninjected foot, Day 14 ([5]; 12.5 mg/kg/day): 10.6%; Inhibition, uninjected foot, Day 21 ([5]; 12.5 mg/kg/day): 14.7%; Inhibition, injected foot, Day 14 ([5]; 50 mg/kg/day): 37.3%; Inhibition, injected foot, Day 21 ([5]; 50 mg/kg/day): 58.8%; Inhibition, uninjected foot, Day 14 ([5]; 50 mg/kg/day): 74.5%; Inhibition, uninjected foot, Day 21 ([5]; 50 mg/kg/day): 69.3%
CC(C)(C)c1cc(C=CC(N)=O)cc(C(C)(C)C)c1O [Compound VIII, β-Carbamoyl-3,5-di-tert-butyl-4-hydroxystyrene]	17.6%	14.6%	25.8%	19.9%	25.9%	16.9%	> 1000 mg/kg	–
CCC(=Cc1cc(C(C)(C)C)c(O)c(C(C)(C)C)c1)C(=O)O [Compound III, β-Carboxy-β-ethyl-3,5-di-tert-butyl-4-hydroxystyrene]	12.1%	18.3%	28.2%	14.6%	31.8%	19.5%	> 1000 mg/kg	–
CC(C)(C)c1cc(C=C[N+](=O)[O-])cc(C(C)(C)C)c1O [Compound X, β-Nitro-3,5-di-tert-butyl-4-hydroxystyrene]	11%	17.3%	–	18.6%	30.5%	23.4%	> 1000 mg/kg	inhibition in vivo at 100 mg/kg [2, 13]: 24.4%
